Test results as given in patent publication US20230139171A1 (SITA Information Networking Computing UK Limited, priority 2019, published 2023).

Assays:
Assay type in all cases: cell-based
human TLR7 = molecular target: T1, human TLR7 (Homo sapiens, UniProt Q9NYK1); test: TLR7 inhibition reporter assay (HEK-Blue cells, SEAP reporter, gardiquimod stimulation); settings: HEK-Blue cells overexpressing human TLR7, SEAP reporter, gardiquimod 7.5 μM; read-out: TLR7 IC50
T1 construct: host or cells: HEK-Blue cells
T1 sequence (Q9NYK1 27-1049): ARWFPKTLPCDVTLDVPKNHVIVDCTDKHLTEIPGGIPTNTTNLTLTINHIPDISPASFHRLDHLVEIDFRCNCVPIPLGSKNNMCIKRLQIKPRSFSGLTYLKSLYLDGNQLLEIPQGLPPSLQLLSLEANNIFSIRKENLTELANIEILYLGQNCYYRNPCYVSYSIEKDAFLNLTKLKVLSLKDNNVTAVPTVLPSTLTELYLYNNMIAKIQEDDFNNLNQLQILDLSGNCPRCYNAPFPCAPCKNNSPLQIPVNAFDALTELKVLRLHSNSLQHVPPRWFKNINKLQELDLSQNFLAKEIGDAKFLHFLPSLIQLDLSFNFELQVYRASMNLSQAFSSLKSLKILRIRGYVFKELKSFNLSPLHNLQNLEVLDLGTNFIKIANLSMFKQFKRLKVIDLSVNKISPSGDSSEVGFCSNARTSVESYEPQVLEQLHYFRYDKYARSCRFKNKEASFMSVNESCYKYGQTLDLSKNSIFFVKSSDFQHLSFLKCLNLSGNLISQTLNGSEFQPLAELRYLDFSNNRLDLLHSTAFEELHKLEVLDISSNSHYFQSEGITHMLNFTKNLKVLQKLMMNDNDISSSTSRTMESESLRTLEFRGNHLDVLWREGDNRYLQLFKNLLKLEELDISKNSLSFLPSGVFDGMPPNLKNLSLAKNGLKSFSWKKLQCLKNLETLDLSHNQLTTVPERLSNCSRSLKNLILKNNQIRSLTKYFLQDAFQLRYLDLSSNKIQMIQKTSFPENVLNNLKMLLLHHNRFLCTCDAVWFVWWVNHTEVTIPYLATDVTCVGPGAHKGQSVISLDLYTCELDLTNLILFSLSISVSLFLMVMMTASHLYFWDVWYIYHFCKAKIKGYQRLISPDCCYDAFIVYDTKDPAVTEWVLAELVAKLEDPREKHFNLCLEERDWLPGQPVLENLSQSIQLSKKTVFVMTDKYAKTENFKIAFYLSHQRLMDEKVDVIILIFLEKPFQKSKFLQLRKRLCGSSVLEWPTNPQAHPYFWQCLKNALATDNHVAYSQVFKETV
Procedure, shortened: (§1)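 HEK-Blue cells overexpressing human TLR7, TLR8 or TLR9 carry a SEAP reporter driven by NF-κB/AP-1 sites. Compounds (0.05 nM–50 μM) were preincubated 30 min at room temperature, then cells were stimulated with gardiquimod 7.5 μM (TLR7), R848 15.9 μM (TLR8) or ODN2006 5 nM (TLR9) for 22 h at 37 °C.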

human TLR8 = molecular target: T2, human TLR8 (Homo sapiens, UniProt Q9NR97); test: TLR8 inhibition reporter assay (HEK-Blue cells, SEAP reporter, R848 stimulation); settings: HEK-Blue cells overexpressing human TLR8, SEAP reporter, R848 15.9 μM; read-out: TLR8 IC50
T2 construct: host or cells: HEK-Blue cells
T2 sequence (Q9NR97 27-1041): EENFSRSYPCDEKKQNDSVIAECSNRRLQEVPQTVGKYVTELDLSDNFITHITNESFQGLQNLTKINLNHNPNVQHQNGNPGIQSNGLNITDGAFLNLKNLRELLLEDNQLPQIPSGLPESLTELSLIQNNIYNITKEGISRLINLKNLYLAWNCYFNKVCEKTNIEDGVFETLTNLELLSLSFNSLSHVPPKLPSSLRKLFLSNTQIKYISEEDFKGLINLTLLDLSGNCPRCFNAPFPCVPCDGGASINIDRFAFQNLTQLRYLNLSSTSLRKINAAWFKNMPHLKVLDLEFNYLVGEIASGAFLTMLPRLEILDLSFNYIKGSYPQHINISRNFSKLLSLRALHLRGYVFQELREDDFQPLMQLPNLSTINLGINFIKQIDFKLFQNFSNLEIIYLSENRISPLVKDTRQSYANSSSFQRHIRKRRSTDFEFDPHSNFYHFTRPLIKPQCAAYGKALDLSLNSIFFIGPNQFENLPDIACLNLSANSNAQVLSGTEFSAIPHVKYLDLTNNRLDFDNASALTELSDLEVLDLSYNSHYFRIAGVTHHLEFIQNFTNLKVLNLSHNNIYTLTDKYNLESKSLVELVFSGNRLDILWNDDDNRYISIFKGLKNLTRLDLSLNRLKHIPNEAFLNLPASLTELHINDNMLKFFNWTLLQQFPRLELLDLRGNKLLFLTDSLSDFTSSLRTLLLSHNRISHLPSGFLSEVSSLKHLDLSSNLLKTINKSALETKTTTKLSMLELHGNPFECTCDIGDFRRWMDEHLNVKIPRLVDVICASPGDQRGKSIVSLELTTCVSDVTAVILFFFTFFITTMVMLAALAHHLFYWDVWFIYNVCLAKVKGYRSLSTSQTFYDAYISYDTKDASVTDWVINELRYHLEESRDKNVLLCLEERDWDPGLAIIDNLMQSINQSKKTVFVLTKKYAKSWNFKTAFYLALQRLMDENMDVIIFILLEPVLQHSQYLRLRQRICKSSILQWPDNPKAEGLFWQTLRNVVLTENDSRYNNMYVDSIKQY
Procedure, shortened: as §1

human TLR9 = molecular target: T3, human TLR9 (Homo sapiens, UniProt Q9NR96); test: TLR9 inhibition reporter assay (HEK-Blue cells, SEAP reporter, ODN2006 stimulation); settings: HEK-Blue cells overexpressing human TLR9, SEAP reporter, ODN2006 5 nM
T3 construct: host or cells: HEK-Blue cells
T3 sequence (Q9NR96 26-1032): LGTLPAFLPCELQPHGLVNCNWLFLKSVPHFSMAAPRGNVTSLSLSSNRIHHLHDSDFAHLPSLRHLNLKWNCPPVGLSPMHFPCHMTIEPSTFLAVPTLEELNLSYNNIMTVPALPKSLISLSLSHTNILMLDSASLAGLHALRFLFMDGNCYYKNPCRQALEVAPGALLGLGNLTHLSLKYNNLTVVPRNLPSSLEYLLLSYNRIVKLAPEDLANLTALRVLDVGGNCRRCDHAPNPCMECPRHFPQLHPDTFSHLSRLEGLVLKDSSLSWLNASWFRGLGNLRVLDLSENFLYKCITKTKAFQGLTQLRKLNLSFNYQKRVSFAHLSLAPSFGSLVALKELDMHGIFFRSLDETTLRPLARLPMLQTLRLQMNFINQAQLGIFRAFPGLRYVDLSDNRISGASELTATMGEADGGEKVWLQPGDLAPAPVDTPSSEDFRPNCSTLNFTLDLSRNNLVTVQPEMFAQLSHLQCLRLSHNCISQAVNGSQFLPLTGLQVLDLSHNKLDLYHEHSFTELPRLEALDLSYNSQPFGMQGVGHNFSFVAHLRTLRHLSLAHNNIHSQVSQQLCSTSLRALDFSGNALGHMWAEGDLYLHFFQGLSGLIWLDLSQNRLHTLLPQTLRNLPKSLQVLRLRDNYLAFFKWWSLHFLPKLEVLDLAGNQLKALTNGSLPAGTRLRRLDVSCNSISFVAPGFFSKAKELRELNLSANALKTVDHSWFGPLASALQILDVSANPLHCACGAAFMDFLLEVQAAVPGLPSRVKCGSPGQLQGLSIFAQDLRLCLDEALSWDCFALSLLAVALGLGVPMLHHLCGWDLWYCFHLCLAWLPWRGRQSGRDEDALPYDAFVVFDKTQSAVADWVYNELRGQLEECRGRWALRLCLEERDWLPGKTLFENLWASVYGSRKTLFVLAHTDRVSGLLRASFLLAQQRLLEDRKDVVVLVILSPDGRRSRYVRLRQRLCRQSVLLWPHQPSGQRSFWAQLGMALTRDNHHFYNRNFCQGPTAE
Procedure, shortened: as §1

Row | SMILES | IC50 (human TLR7) [nM] | IC50 (human TLR8) [nM] | IC50 (human TLR9) [nM]
1 | CC(C)c1c(-c2cn(C)c3ncccc23)[nH]c2sc(C3CCC(NC4COC4)CC3)nc12 (single isomer, unassigned) [Example 178, N-(4-(6-isopropyl-5-(1-methyl-1H-pyrrolo[2,3-b]pyridin-3-yl)-4H-pyrrolo[3,2-d]thiazol-2-yl)cyclohexyl)oxetan-3-amine] | 1.69 | 2.44 | 6710
2 | CC(C)c1c(-c2cn(C)c3ncccc23)[nH]c2sc(C3CCC(NC4COC4)CC3)nc12 (single isomer, unassigned) [Example 179, N-(4-(6-isopropyl-5-(1-methyl-1H-pyrrolo[2,3-b]pyridin-3-yl)-4H-pyrrolo[3,2-d]thiazol-2-yl)cyclohexyl)oxetan-3-amine] | 9.72 | 13.5 | 7260
3 | CC(C)c1c(-c2cn(C)c3ncccc23)[nH]c2sc(C3CCC(N4CC5(COC5)C4)CC3)nc12 (single isomer, unassigned) [Example 180, 6-(4-(6-isopropyl-5-(1-methyl-1H-pyrrolo[2,3-b]pyridin-3-yl)-4H-pyrrolo[3,2-d]thiazol-2-yl)cyclohexyl)-2-oxa-6-azaspiro[3.3]heptane] | 3.54 | 3.7 | 5280
4 | CC(C)c1c(-c2cn(C)c3ncccc23)[nH]c2sc(C3CCC(N4CC5(COC5)C4)CC3)nc12 (single isomer, unassigned) [Example 181, 6-(4-(6-isopropyl-5-(1-methyl-1H-pyrrolo[2,3-b]pyridin-3-yl)-4H-pyrrolo[3,2-d]thiazol-2-yl)cyclohexyl)-2-oxa-6-azaspiro[3.3]heptane] | 9.92 | 36 | 5660
5 | CC(C)c1c(-c2cn(C)c3ncccc23)[nH]c2sc(C3CCC(NCC(C)(C)O)CC3)nc12 (single isomer, unassigned) [Example 182, 1-((4-(6-isopropyl-5-(1-methyl-1H-pyrrolo[2,3-b]pyridin-3-yl)-4H-pyrrolo[3,2-d]thiazol-2-yl)cyclohexyl)amino)-2-methylpropan-2-ol] | 1.74 | 0.76 | 13500
6 | CC(C)c1c(-c2cn(C)c3ncccc23)[nH]c2sc(C3CCC(NCC(C)(C)O)CC3)nc12 (single isomer, unassigned) [Example 183, 1-((4-(6-isopropyl-5-(1-methyl-1H-pyrrolo[2,3-b]pyridin-3-yl)-4H-pyrrolo[3,2-d]thiazol-2-yl)cyclohexyl)amino)-2-methylpropan-2-ol] | 8.89 | 9.41 | 6790
7 | Cc1c(-c2[nH]c3sc(C4CCC(NC5COC5)CC4)nc3c2C(C)C)cn2ncnc2c1C (single isomer, unassigned) [Example 184, N-(4-(5-(7,8-dimethyl-[1,2,4]triazolo[1,5-a]pyridin-6-yl)-6-isopropyl-4H-pyrrolo[3,2-d]thiazol-2-yl)cyclohexyl)oxetan-3-amine] | 1.01 | 0.84 | 11400
8 | Cc1c(-c2[nH]c3sc(C4CCC(NC5COC5)CC4)nc3c2C(C)C)cn2ncnc2c1C (single isomer, unassigned) [Example 185, N-(4-(5-(7,8-dimethyl-[1,2,4]triazolo[1,5-a]pyridin-6-yl)-6-isopropyl-4H-pyrrolo[3,2-d]thiazol-2-yl)cyclohexyl)oxetan-3-amine] | 7.42 | 3.38 | 23000
9 | COC(C)(C)CNC1CCC(c2nc3c(C(C)C)c(-c4cn5ncnc5c(C)c4C)[nH]c3s2)CC1 (single isomer, unassigned) [Example 186, 4-(5-(7,8-dimethyl-[1,2,4]triazolo[1,5-a]pyridin-6-yl)-6-isopropyl-4H-pyrrolo[3,2-d]thiazol-2-yl)-N-(2-methoxy-2-methylpropyl)cyclohexan-1-amine] | 1.59 | 0.21 | 5920
10 | COC(C)(C)CNC1CCC(c2nc3c(C(C)C)c(-c4cn5ncnc5c(C)c4C)[nH]c3s2)CC1 (single isomer, unassigned) [Example 187, 4-(5-(7,8-dimethyl-[1,2,4]triazolo[1,5-a]pyridin-6-yl)-6-isopropyl-4H-pyrrolo[3,2-d]thiazol-2-yl)-N-(2-methoxy-2-methylpropyl)cyclohexan-1-amine] | 10.4 | 4.25 | 8720
11 | COC1CN(C2CCC(c3nc4c(C(C)C)c(-c5cn6ncnc6c(C)c5C)[nH]c4s3)CC2)C1 (single isomer, unassigned) [Example 188, 5-(7,8-dimethyl-[1,2,4]triazolo[1,5-a]pyridin-6-yl)-6-isopropyl-2-(4-(3-methoxyazetidin-1-yl)cyclohexyl)-4H-pyrrolo[3,2-d]thiazole] | 0.71 | 0.58 | 10800
